The conditions of data set [1]: metabolite of HFA-134a, only in some urine samples at trace levels; cited from earlier work.
Data set [2] is described as follows: Three compartment pharmacokinetic analysis of HFA elimination in breath after Flovent HFA. Format: in vivo, human. The following applies: for half-life: human, exhaled breath, inhaled. As to the method: 24 hr, 36 hr, and 48 hr—post Flovent HFA administration (red and blue open circle). All sample collections were held open space. […] The calculated half-lives are 0.97, 20.7, and 442 minutes for subject #1 and 0.92, 27.6, and 355 minutes for subject #2.
As further disclosed in FIG. 5, the inventors re-defined the experiment and have performed a compartmental pharmacokinetic analysis of HFA elimination kinetics using HFA at 5 min, 7 min, 10 min, 15 min, 30 min, 1 hr, 2 hr, 3 hr, 4 hr, 6 hr, 8 hr, 12 hr. 24 hr, 36 hr, and 48 hr—post Flovent HFA administration. The HFA elimination could be modeled using three compartment pharmacokinetic analysis (Eq1). […] The elimination rate constant in each compartment, L1, L2, and L3, respectively are −0.1970, −0.0183, and −0.0013 for subject #1 and −0.1720, −0.0142, and −0.0018 for subject #2. The corresponding half-lives are 0.97, 20.7, and 442 minutes for subject #1 and 0.92, 27.6, and 355 minutes for subject #2.

The conditions of data set [3]: in vivo; cited from earlier work.
A short description of data set [4]: Exhaled breath HFA-134a levels after asthma inhaler administration (GC with MSD). The format is in vivo, human. As to the method:
Study participants were randomly assigned to inhaled corticosteroid (ICS, Flovent HFA, 220 mcg, n=5) or short acting bronchodilator (Albuterol, Proventil HFA, n=5). Baseline exhaled breath sampling and standard lung function test were performed prior to the medication dispersion. After baseline measurements, the participants inhaled two puffs of either Flovent HFA (Glaxo Smith Kline) or Proventil HFA (Merck & CO., INC) using a spacer (AeroChamberPlus Flow-Vu, Monaghan). Breath sampling and lung function test were performed immediately after inhalation (<5 min), and at 2, 4, 6, 8, 24, and 48 hours post administration (see FIG. 3).
Exhaled breath samples were collected in evacuated electro-polished stainless steel canisters (volume=1.9 L). The analytic system used in this study is similar to the system described in Colman et al., 2001 (18). Briefly, 790 mL of the collected air sample is pre-concentrated in a stainless steel loop filled with glass beads and submerged in liquid nitrogen to remove the nitrogen, oxygen and argon present in the sample. The sample is re-vaporized using hot water (at approximately 80° C.) and split into five different column/detector combinations housed in three gas chromatographs (GCs) using UHP helium as the carrier gas: (1) DB-1 column (J&W; 60 m, 0.32 mm I.D., 1 μm film thickness) output to a flame ionization detector (FID); (2) DB-5 column (J&W; 30 m, 0.25 mm I.D., 1 vim film thickness) connected in series to a RESTEK 1701 column (5 m, 0.25 mm I.D., 0.5 μm film thickness) and output to an electron capture detector (ECD); (3) RESTEK 1701 column (60 m, 0.25 mm I.D., 0.50 μm film thickness) output to an ECD; (4) PLOT column (J&W GS-Alumina; 30 m, 0.53 mm I.D.) connected in series to a DB-1 column (J&W; 5 m, 0.53 mm I.D., 1.5 μm film thickness) and output to an FID; (5) DB-5 ms column (J&W; 60 m, 0.25 mm I.D., 0.5 μm film thickness) output to a quadrupole mass spectrometer detector (MSD, HP 5973). The MSD is set to operate in selected ion monitoring (SIM) mode with one ion chosen to quantify each compound in order to achieve the maximum selectivity and to avoid potential interferences. All gas chromatographs and detectors used in this study are manufactured by Hewlett Packard. The analytical system allows for the identification and quantification of different classes of volatile organic compounds (VOCs). […] Simultaneously, room air samples were also collected in the same location to quantify corresponding ambient levels of HFA-134a.

The conditions of data set [5]: 500 ppm of HFA-134a for two hours; cited from earlier work.
The nature of data set [6]: Exhaled breath HFA-134a levels after asthma inhaler administration (GC with MSD). Format: in vivo, human. To be noted: n=1, Flovent HFA one puff per day for nine days, last ICS approximately 24 hr before sampling.
Setting [7] is: Albuterol subject #3 (Proventil HFA).

Where two headings read alike, the source gives them in different places.

Here are results for 2 compounds from US9581586B2, “Approach to asthma inhaler compliance using breath measurement of tetrafluoroethane” (The Regents of the University of California, priority 2014, dated 2017).

`O=C(O)C(F)(F)F` [trifluoroacetic acid]: in data set [1], the “Trifluoroacetic acid detected in urine samples” value is given as “less than 0.0005 % of the administered dose”.
For the compound `FCC(F)(F)F` [HFA-134a, 1,1,1,2-tetrafluoroethane], the half-life (as a rule, how long it takes for the measured level to halve) is 0.97 min in data set [2] (subject #1, read-out: Half-life corresponding to L1); 20.7 min in data set [2] (subject #1, read-out: Half-life corresponding to L2); 442 min in data set [2] (subject #1, read-out: Half-life corresponding to L3); 0.92 min in data set [2] (subject #2, read-out: Half-life corresponding to L1); 27.6 min in data set [2] (subject #2, read-out: Half-life corresponding to L2); 355 min in data set [2] (subject #2, read-out: Half-life corresponding to L3). Further, the “Elimination rate constant L1” value in data set [2] (subject #1, post Flovent HFA) is recorded as −0.1970 reciprocal minutes; in data set [2] (subject #2, post Flovent HFA), −0.1720 reciprocal minutes. The “Elimination rate constant L2” value in data set [2] (subject #1, post Flovent HFA) is given as −0.0183 reciprocal minutes; in data set [2] (subject #2, post Flovent HFA), −0.0142 reciprocal minutes. Moreover, the “Elimination rate constant L3” value is −0.0013 reciprocal minutes in data set [2] (subject #1, post Flovent HFA) and −0.0018 reciprocal minutes in data set [2] (subject #2, post Flovent HFA). The “HFA-134a levels in blood samples” value in data set [3] is given as “below 10 % of the initially administered concentration”. Moreover, the “Exhaled HFA-134a levels at the 2-hr time point” value in data set [4] (2 hr post inhaler administration, range over subjects) is on record as 28000-266000 pptv. Also, the “HFA concentration in breath at 48 hr post typical asthma inhaler administration” value in data set [4] (48 hr post) was “still detectable”. Further, the “Breath HFA-134a 48 hr post medication” value in data set [4] (setting [7]) is reported as 224 pptv. Further, the “Breath HFA-134a right after medication” value in data set [4] (setting [7]) came out at 6.2 ppmv. The “Breath HFA-134a at 48 hour time point” value in data set [4] (ICS subject #3 (Flovent HFA)) is on record as 287 pptv; in data set [4] (ICS subject #4 (Flovent HFA)), 351 pptv. Besides, the entries for the “Breath HFA-134a right after drug administration” value in data set [4] (ICS subject #3 (Flovent HFA)) and in data set [4] (ICS subject #4 (Flovent HFA)) were 179 ppmv and 48 ppmv, respectively. In addition, the “Time HFA can be measured in exhaled breath after a typical single inhalation” value in data set [4] (down to parts-per-trillion levels) is reported as “at least 48 hours”. In data set [4] (healthy controls, Flovent HFA or Proventil HFA, immediately after inhalation), the “HFA-134a breath levels immediately after inhalation” value is reported as 300×10^6 pptv. In addition, in data set [4] (healthy participants), the “Time HFA is detectable above ambient levels following an inhalation” value is reported as “up to 24 hours”. In addition, the “Exhaled breath HFA-134a levels right after inhalation (range over subjects)” value in data set [4] (healthy participants, two puffs of asthma inhaler, right after inhalation) is on record as 3-300 ppmv. In addition, the “Mean (SD) levels of HFA-134a in exhaled breath at 48-hr post inhaler administration” value in data set [4] (seven of ten healthy participants, 48 hr post) was 260 (138) pptv. Besides, the “Breath HFA-134a levels at 48 hours post inhaler administration” value in data set [4] (similar to room HFA-134a levels, also at baseline) is reported as “approximately 200 pptv”. In addition, in data set [5], the “Decrease of exhaled breath HFA-134a compared with HFA-134a in plasma when exposure stopped” value is reported as “almost an order of magnitude faster”. The “Exhaled breath HFA-134a the day after the exposure” value in data set [5] was “not-detectable”. For the same compound, in data set [6], the “Baseline breath HFA level of symptomatic asthma subject on ICS” value turned out to be 710 ppt.
